From US9340532B2, “Methods and compositions for inhibiting CNKSR1” (PHUSIS THERAPEUTICS, INC., priority 2012, dated 2016)
Where two headings read alike, the source gives them in different places.

Legend:
CNK1 PH-domain (CNKSR1) = biological target: T1, CNK1 PH-domain (CNKSR1) (Homo sapiens, UniProt Q969H4); experiment: SPR binding assay (Biacore T100), CNK1 PH-domain
T1 construct: The PH-domain His-fusion proteins (CNK1 and AKT1) were expressed and immobilized on a NTA chip; made in house
T1 sequence (Q969H4 403-502 limits assumed): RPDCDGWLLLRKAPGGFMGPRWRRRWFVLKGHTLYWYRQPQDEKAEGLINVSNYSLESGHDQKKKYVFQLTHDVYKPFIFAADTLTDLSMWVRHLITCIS
Description: (§1) All interaction analyses were done with a Biacore T100 Control Software v3.2, and BIAevaluation v4.1 analysis software (Biacore). The PH-domain His-fusion proteins (CNK1 and AKT1) were expressed and immobilized on a NTA chip to a level of 10,000 response units or less. Small molecule analytes at concentrations ranging from 50 μM to 0.010 μM were injected at a high flow rate (30 μL/min) DMSO concentrations in all samples and running buffer were 1-5% (v/v).
Other docking was performed using modeling algorithms with state-of-the-art commercial drug discovery software (Schrodinger suite). […] Additionally, ligand-based approaches provided an alternative to structure based drug discovery. Ligand-based virtual screening methodologies can take into account shape and electrostatics (like ROCS) and the pharmacophoric features (acceptor, donor, hydrophobic, aromatic, etc.) of its functional groups. […] SPR interaction analyses of all other compounds was undertaken using a Biacore T100 with Control and Evaluation software kit.

[1] = test system: H1373 (KRAS mutant cell line); experiment: Proliferation Assay H1373; type: cell-based; details: Homo sapiens, NCI-H1373, N = 2 experiments
Description: (§2) The isogenic KRAS lines harboring G12D, G12C, and G12V were obtained from Horizon Discovery labs on a one year lease. These cells were cultured in McCoys media with 10% FBS to 80% confluency. Cells were then released from flasks via trypsinization and plated into 96-well plates at an initial density range of 2000 cells per well. Cells were allowed 24 hours to attach, and then the agents were added to the culture media at a range of concentrations from 0-100 μM. Cells were incubated for 72 hours with the drugs, and then viability was assessed using an MTS viability assay. Cells were exposed to MTS reagent (Promega) dissolved in PBS (Hyclone) at a concentration of 200 μL reagent/mL media for 2 hours. Absorbance was then read at 490 nm, and viability was expressed as a percentage normalized between the negative control (no cells plated) and the condition of cells with no drug added (100% viability) normalized as the upper limit of viability.
(§3) Our panel of 30 cell lines and an extensive characterization were obtained from Dr. John Minna (UTSW). All cell lines were cultured in RPMI 1640 with 10% FBS. Cells were treated with concentrations of agents at concentrations 0.01 to 50 μM and evaluated as described above. IC50's were determined using Excelfit.

[2] = test system: H1975 (KRAS wildtype cell line); experiment: Proliferation Assay H1975; type: cell-based; details: Homo sapiens, NCI-H1975, n = 1
Description: as §2, §3

AKT1 PH-domain = biological target: T2, AKT1 PH-domain (Homo sapiens, UniProt P31749); experiment: SPR binding assay (Biacore T100), AKT1 PH-domain; details: for Kd: read-out: AKT KD
T2 construct: The PH-domain His-fusion proteins (CNK1 and AKT1) were expressed and immobilized on a NTA chip; made in house
T2 sequence (P31749 5-108 limits assumed): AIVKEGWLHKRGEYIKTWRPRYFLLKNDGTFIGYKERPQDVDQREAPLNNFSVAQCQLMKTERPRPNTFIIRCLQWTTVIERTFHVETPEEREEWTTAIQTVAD
Description: as §1
A commercially available docking package, GOLD (GOLD [3.2], CCDC: Cambridge, UK, 2007) was used to evaluate the docking of compounds 1-7 into the binding pocket, see e.g. Table 5. Other docking was performed using modeling algorithms with state-of-the-art commercial drug discovery software (Schrodinger suite). GLIDE was chosen as the docking algorithm used to select and optimize compounds, providing a GlideScore as a rough estimate of binding affinity that was used to rank and select the best compounds. Additionally, ligand-based approaches provided an alternative to structure based drug discovery. Ligand-based virtual screening methodologies can take into account shape and electrostatics (like ROCS) and the pharmacophoric features (acceptor, donor, hydrophobic, aromatic, etc.) of its functional groups. Inositol tetraphosphate (IP4) binding to the PH-domain of CNKSR1 provided a good starting point for shape screening. Both structure-based and ligand-based approaches were used to find novel compounds (Table 7) and to refine and improve lead compounds (Tables 8, and 9). SPR interaction analyses for Compounds 1 through 7 were performed with a Biacore 2000, using Biacore2000 Control Software v3.2 and BIAevaluation v4.1 analysis software (Biacore) as described in Mol Cancer Ther 7:2621 (2008). SPR interaction analyses of all other compounds was undertaken using a Biacore T100 with Control and Evaluation software kit.

[3] = test system: H226 (KRAS wildtype cell line); experiment: Proliferation Assay H226; type: cell-based; details: Homo sapiens, NCI-H226, n = 1
Description: as §2, §3

[4] = test system: A549 (KRAS mutant cell line); experiment: Proliferation Assay A549; type: cell-based; details: Homo sapiens, N = 2 experiments
Description: as §2, §3

| Structure (SMILES) | Kd (CNK1 PH-domain (CNKSR1); Table 6, read-out: CNKS KD) [µM] | Surface Plasmon Resonance CNKSR1 binding (RU max) (CNK1 PH-domain (CNKSR1); date 12 09 13) [RU * 100/Da] | Surface Plasmon Resonance CNKSR1 stability (RU max post-injection) (CNK1 PH-domain (CNKSR1); date 12 09 13) [RU * 100/Da] | IC50 [1] [µM] | IC50 [2] [µM] | Kd (AKT1 PH-domain; Table 6) [µM] | IC50 [3] [µM] | IC50 [4] [µM] | Kd (CNK1 PH-domain (CNKSR1); Table 8, read-out: CNK KD) [µM] | Kd (AKT1 PH-domain; Table 8) [µM] | AKT KD (AKT1 PH-domain; Table 8) | Surface Plasmon Resonance CNKSR1 binding (RU max) (CNK1 PH-domain (CNKSR1); date 11 26 13) [RU * 100/Da] | Surface Plasmon Resonance CNKSR1 stability (RU max post-injection) (CNK1 PH-domain (CNKSR1); date 11 26 13) [RU * 100/Da] | AKT KD (AKT1 PH-domain; Table 7, curated diversity set) |
| --- | --- | --- | --- | --- | --- | --- | --- | --- | --- | --- | --- | --- | --- | --- |
| Cc1ccc(-c2csc(Cn3nc(NS(=O)(=O)c4cccs4)c4ccccc4c3=O)n2)cc1 [Compound 5] | 51.3 | −0.695 | −0.158 | > 100 | 80 | 34.2 | > 100 | 90 |  |  |  |  |  |  |
| COc1cc(N)c(SC)c(/C=C/C(=O)O)c1O [Compound 108, (2E)-3-[3-amino-6-hydroxy-5-methoxy-2-(methylsulfanyl)phenyl]prop-2-enoic acid] |  | −0.024 | 0.056 | 38 | 100 |  | 55 | 30 | 72.5 | 133 |  |  |  |  |
| COc1c(/C=C/C(=O)O)cc(NS(=O)(=O)c2cccs2)c2c1OCO2 [Compound 84, (E)-3-(4-methoxy-7-(thiophene-2-sulfonamido)benzo[d][1,3]dioxol-5-yl)acrylic acid] |  |  |  | > 100 | > 100 |  | > 100 | > 100 |  |  | No binding |  |  |  |
| CCOC(=O)/C=C/c1c(O)c(OC)cc(N)c1SC [Compound 107, ethyl (E)-3-(5-amino-2-hydroxy-3-methoxy-6-methylsulfanylphenyl)prop-2-enoate] |  | −0.174 | −0.083 | 45 | 95 |  | 60 | 45 | 125 | 286 |  |  |  |  |
| CN1CC(=O)N(/C=C/c2cc(NS(=O)(=O)c3cccs3)c3c(c2O)OCO3)C1=O [Compound 91] |  |  |  | > 100 | > 100 |  | > 100 | > 100 |  |  |  | −1.867 | 0.288 |  |
| Cc1c(Cl)ccc2c(C(=O)O)cc(-c3cccnc3)nc12 [Compound 64] |  |  |  |  |  |  |  |  |  |  |  |  |  | Bound |
| COc1ccc(OC)c(-c2cc(C(=O)O)c3nc(C)[nH]c3n2)c1 [Compound 34] |  |  |  |  |  |  |  |  |  |  |  |  |  | Bound |
| O=C1COC(=O)N1/C=C/c1cc(NS(=O)(=O)c2cccs2)c2c(c1O)OCO2 [Compound 100] |  |  |  | > 100 | > 100 |  | > 100 | > 100 |  |  |  | −1.240 | −0.026 |  |
| O=C(O)/C=C/c1cc(NS(=O)(=O)c2cccs2)c2c(c1O)OCO2 [Compound 89, (E)-3-(4-hydroxy-7-(thiophene-2-sulfonamido)benzo[d][1,3]dioxol-5-yl)acrylic acid] |  | 1.350 | 1.401 | > 100 | > 100 |  | > 100 | > 100 | 3.37 |  |  |  |  |  |
| Cc1ccc(-c2csc(Cn3nc(CC(=O)NCC(N)=O)c4ccccc4c3=O)n2)cc1 [Compound 82] |  | 1.304 | 0.544 | 65 | 70 |  | > 100 | 51 |  |  |  |  |  |  |
| Nc1cccc(-c2cc(C(=O)O)c3cc(Cl)ccc3n2)c1 [Compound 66] |  |  |  |  |  |  |  |  |  |  |  |  |  | Bound |
| Cc1ccc(-c2csc(Cn3nc(CC(=O)NCCC(N)=O)c4ccccc4c3=O)n2)cc1 [Compound 81] | 109 | 0.316 | 0.154 | 95 | 80 |  | > 100 | 100 |  |  |  |  |  |  |
| O=C(O)CCc1cc(NS(=O)(=O)c2cccs2)c2c(c1O)OCO2 [Compound 90, 3-(4-hydroxy-7-(thiophene-2-sulfonamido)benzo[d][1,3]dioxol-5-yl)propanoic acid] |  | −7.809 | −3.766 | > 100 | > 100 |  | > 100 | > 100 |  |  |  |  |  |  |
| Cc1ccc(-c2csc(Cn3nc(CC4CN=CCO4)c4ccccc4c3=O)n2)cc1 (stereo not shown) [Compound 80] | > 100 |  |  |  |  |  |  |  |  |  |  |  |  |  |
| O=C(O)CCc1ccc(-c2ccc(Br)cc2)n1CCC(=O)O [Compound 67] |  |  |  |  |  |  |  |  |  |  |  |  |  | Bound |

Results, then the molecule that gave them:

| Kd (CNK1 PH-domain (CNKSR1); Table 6, read-out: CNKS KD) [µM] | Surface Plasmon Resonance CNKSR1 binding (RU max) (CNK1 PH-domain (CNKSR1); date 12 09 13) [RU * 100/Da] | Surface Plasmon Resonance CNKSR1 stability (RU max post-injection) (CNK1 PH-domain (CNKSR1); date 12 09 13) [RU * 100/Da] | IC50 [1] [µM] | IC50 [2] [µM] | Kd (AKT1 PH-domain; Table 6) [µM] | IC50 [3] [µM] | IC50 [4] [µM] | Kd (CNK1 PH-domain (CNKSR1); Table 8, read-out: CNK KD) [µM] | Kd (AKT1 PH-domain; Table 8) [µM] | AKT KD (AKT1 PH-domain; Table 8) | Surface Plasmon Resonance CNKSR1 binding (RU max) (CNK1 PH-domain (CNKSR1); date 11 26 13) [RU * 100/Da] | Surface Plasmon Resonance CNKSR1 stability (RU max post-injection) (CNK1 PH-domain (CNKSR1); date 11 26 13) [RU * 100/Da] | AKT KD (AKT1 PH-domain; Table 7, curated diversity set) | Structure (SMILES) |
| --- | --- | --- | --- | --- | --- | --- | --- | --- | --- | --- | --- | --- | --- | --- |
|  | −0.369 | −0.053 | 50 | > 100 |  | 95 | 50 |  |  |  |  |  |  | Cc1ccc(-c2csc(Cn3nc(C4OC5CCOC54)c4ccccc4c3=O)n2)cc1 (stereo not shown) [Compound 124] |
|  | −0.166 | −0.031 | 16 | 27 |  | 19 | 27 |  |  |  |  |  |  | Cc1ccc(-c2csc(Cn3nc(CC(O)CN)c4ccccc4c3=O)n2)cc1 (stereo not shown) [Compound 126] |
|  |  |  | 60 | > 100 |  | 60 | 72 |  |  |  | 0.457 | 0.906 |  | COc1cc(NS(=O)(=O)c2cccs2)c(SC)c(/C=C/N2C(=O)CN(C)C2=O)c1O [Compound 132] |
|  |  |  |  |  |  |  |  |  |  |  | −0.133 | −0.041 |  | CCOC(=O)/C=C/c1cc(NS(=O)(=O)c2cccs2)c2c(c1OC)OCO2 [Compound 129] |
|  | −0.541 | −0.304 | > 100 | > 100 |  | > 100 | > 100 |  |  |  | 1.409 | 0.456 |  | CN1CC(=O)N(/C=C/c2cc(N(S(=O)(=O)c3cccs3)S(=O)(=O)c3cccs3)c3c(c2O)OCO3)C1=O [Compound 128] |
|  |  |  | > 100 | > 100 |  | 95 | > 100 |  |  |  | −1.537 | −0.123 |  | COc1cc(NS(=O)(=O)c2cccs2)c(SC)c(/C=C/N2C(=O)COC2=O)c1O [Compound 133] |
|  | −0.380 | −0.127 | 60 | 40 |  | 65 | 38 |  |  |  |  |  |  | Cc1ccc(-c2csc(Cn3nc(CC(O)C[N+](=O)[O-])c4ccccc4c3=O)n2)cc1 (stereo not shown) [Compound 125] |
|  | 3.050 | 2.868 | > 100 | > 100 |  | > 100 | > 100 |  |  |  |  |  |  | Cc1ccc(-c2csc(Cn3nc(CC(=O)NS(C)(=O)=O)c4ccccc4c3=O)n2)cc1 [Compound 127] |
